From PMC10654507, “A cleavable chimeric peptide with targeting and killing domains enhances LPS neutralization and antibacterial properties against multi-drug resistant E. coli” (Communications Biology, 2023)
Read-outs that look alike come from different tables or passages of the source. Residues, ends and D or L forms follow the SMILES beside them.

What was measured:
in vitro = in vitro ADME; details: for degradation in human serum: RP-HPLC (Supplementary Fig. 2)
MDR E. coli CVCC195 = test: Intestinal alkaline phosphatase (IAP) activity in duodenum, E. coli-challenged mice; format: in vivo, mouse; details: for IAP levels in mice: Fig. 5g source data, peptide + E. coli, mean; for IAP activity: duodenum, 12 h after E. coli infection, mice pre-treated with 7 μmol/kg peptide, ELISA
Description: (§1) After E. coli or LPS challenge, the mice were sacrificed at 12 h and 24 h, respectively, and the sera were collected to detect inflammatory cytokines (such as tumor necrosis factor-α (TNF-α), interleukin-6 (IL-6), interleukin-1β (IL-1β), and interleukin-10 (IL-10)) using the enzyme linked immunosorbent assay (ELISA) kits. To evaluate the specific activity of intestinal alkaline phosphatase (IAP), a 2 cm segment of duodenum was rapidly intercepted from the mice and homogenized; the IAP levels in the supernatant were detected by ELISA. In addition, the lungs were collected from the mice infected by E. coli after 12 and 24 h, respectively and were homogenized in sterile PBS for the bacterial counts assay.

E. coli 0111: B4 LPS = test: BC (BODIPY-TR-cadaverine) displacement assay, binding to LPS; parameters: species or system Escherichia coli; unit not given here; details: Fig. 4a source data, mean
Description: The binding of peptides to LPS was determined according to the method described previously[34],[59]. In brief, E. coli 0111: B4 LPS (40 μg/mL) and BODIPY-TR-cadaverine (BC) (10 μM) were mixed in 50 mM Tris buffer (pH = 7.4) in equal proportions and added to a 96-well black plate (180 μL/well) in the dark. Different concentrations of chimeric peptide R7 and its parental (20 μL) were added into each well and detected by a fluorescence spectrophotometry at room temperature (excitation wavelength 580 nm, emission wavelength 620 nm). The change in relative fluorescence was recorded and the BC displacement rate was calculated. Polymycin B (PMB) was used as the positive control.

LPS [1] = test: Intestinal alkaline phosphatase (IAP) activity in duodenum, LPS-challenged mice; format: in vivo, mouse; parameters: IAP levels in mice: unit not given beside the values; details: for IAP levels in mice: Fig. 7f source data, peptide + LPS, mean
Description: as §1

[2] = system: E. coli, S. typhimurium and S. aureus; format: cell-based; details: tested S. aureus strains
Description: The minimum inhibitory concentration (MIC) and minimum bactericidal concentration (MBC) of peptides were determined by the microtiter broth dilution method according to Clinical and Laboratory Standards Institute (CLSI) guidelines. […] PBS was used as the negative control. […] The MBC value was calculated as the lowest concentration of peptides resulting in a 99.9% reduction of the original inoculum. All experiments were repeated three times.

[3] = Serum stability in mouse serum (RP-HPLC); format: in vitro ADME; details: 25% mouse serum; for remaining at 0.5 h, 0.5 mM / remaining at 1 h, 0.5 mM / remaining at 2 h, 0.5 mM / remaining at 4 h, 0.5 mM / remaining rate in mouse serum / remaining at 8 h, 0.5 mM: peptide 0.5 mM, mean of three; for remaining at 0.5 h, 0.5 mM / remaining at 1 h, 0.5 mM / remaining at 2 h, 0.5 mM / remaining at 4 h, 0.5 mM / remaining at 8 h, 0.5 mM: read-out: remaining rate in mouse serum; for remaining rate in mouse serum / remaining at 8 h, 0.5 mM: 8 h; for peptide remained intact in mouse serum: range from 2 h to 8 h of incubation
Description: Serum stability of R7 and its parent-L7 was tested as previously described with minor modifications[46],[53]. Briefly, each peptide was added to the 25% mouse serum to a final concentration of 0.5 mM; 250 µL aliquots of samples were taken at 0, 0.5, 1, 2, 4 and 8 h, and mixed with 20 µL 15% trichloroacetic acid (TCA). The samples were incubated at 4 °C for 15 min and centrifuged for 10 min at 12,000 rpm. The supernatants were analyzed by RP-HPLC or inhibition zone method. Moreover, after incubation in serum for 2 h, R7 was analyzed by matrix assisted laser desorption/ionization-time of flight mass spectrometry (MALDI-TOF MS) and high-performance liquid chromatography-mass spectrometry (HPLC-MS), respectively.

MDR E. coli = format: in vivo, mouse; parameters: key to therapeutic efficacy, survival, single-animal event: 1 represents a mouse death; 0 represents no death; details: for therapeutic efficacy, survival, single-animal event: Supplementary Fig. 3a source data, MDR E. coli challenge, one cell per mouse
Description: Supplementary Figure 3. Therapeutic eﬀicacy of cleavable chimeric peptide R7 in the mice
challenged with MDR E. coli or LPS After the intraperitoneal injection with MDR E. coli (a) or LPS
(b) at a concentration of LD100, the mice were treated with 7 μmol/kg R7 at 0.5 h and 8 h, respectively.
The mouse survival was recorded for 7 d. The mice injected with MDR E. coli/LPS or saline were used

LPS [4] = test: Serum cytokines (TNF-α, IL-6, IL-1β, IL-10; ELISA) in LPS-challenged mice; format: in vivo, mouse; details: LPS-challenged mice pre-treated with 7 μmol/kg, range over sampling times (12 h, 24 h)
Description: as §1

[5] = Supplementary Fig. 2b source data, human serum, RP-HPLC, mean, read-out: remaining rate in human serum

Compound	degradation in human serum (in vitro)	remaining at 0.5 h, 0.5 mM (in vitro; [5])	remaining at 1 h, 0.5 mM (in vitro; [5])	remaining at 2 h, 0.5 mM (in vitro; [5])	remaining at 4 h, 0.5 mM (in vitro; [5])	IAP levels in mice (MDR E. coli CVCC195; 12 h)	IAP levels in mice (MDR E. coli CVCC195; 24 h)	IAP activity (MDR E. coli CVCC195)	binding affinity to LPS (E. coli 0111: B4 LPS; peptide concentration 0.05 μM)	binding affinity to LPS (E. coli 0111: B4 LPS; peptide concentration 0.1 μM)	binding affinity to LPS (E. coli 0111: B4 LPS; peptide concentration 0.5 μM)	binding affinity to LPS (E. coli 0111: B4 LPS; peptide concentration 1 μM)	binding affinity to LPS (E. coli 0111: B4 LPS; peptide concentration 5 μM)	binding affinity to LPS (E. coli 0111: B4 LPS; peptide concentration 10 μM)	binding affinity to LPS (E. coli 0111: B4 LPS; peptide concentration 50 μM)	binding affinity to LPS (E. coli 0111: B4 LPS; peptide concentration 100 μM)	IAP levels in mice (LPS [1]; 12 h)	IAP levels in mice (LPS [1]; 24 h)	remaining at 0.5 h, 0.5 mM [3]	remaining at 1 h, 0.5 mM [3]	also measured
CSCC[C@H](NC(=O)[C@H](CCCNC(=N)N)NC(=O)[C@H](Cc1c[nH]c2ccccc12)NC(=O)[C@H](C)NC(=O)[C@H](Cc1c[nH]c2ccccc12)NC(=O)[C@H](CCCNC(=N)N)NC(=O)[C@H](Cc1c[nH]c2ccccc12)NC(=O)[C@H](C)NC(=O)[C@H](CCCCN)NC(=O)[C@H](Cc1ccccc1)NC(=O)[C@H](CCCNC(=N)N)NC(=O)[C@H](CCCNC(=N)N)NC(=O)[C@H](CCCCN)NC(=O)[C@H](CCCNC(=N)N)NC(=O)[C@H](CCCCN)NC(=O)[C@H](Cc1ccccc1)NC(=O)[C@H](Cc1ccccc1)NC(=O)[C@H](CO)NC(=O)[C@H](C)NC(=O)[C@H](CCCNC(=N)N)NC(=O)[C@@H](NC(=O)[C@H](CCCCN)NC(=O)[C@H](Cc1c[nH]c2ccccc12)NC(=O)[C@H](CCCNC(=N)N)NC(=O)CNC(=O)[C@H](CCC(N)=O)NC(=O)[C@@H](NC(=O)[C@@H](N)CCCNC(=N)N)C(C)C)C(C)C)C(=O)N[C@@H](CCCCN)C(=O)N[C@@H](CCCCN)C(=O)N[C@@H](CC(C)C)C(=O)N[C@@H](C)C(=O)N[C@@H](C)C(=O)N1CCC[C@H]1C(=O)N[C@@H](CO)C(=O)O [R7] (H-RVQGRWKVRASFFKRKRRFKAWRWAWRMKKLAAPS-OH)	almost identical to those in mouse serum	58.6%	51.9%	45.6%	23%	514.632	541.948	514.6 U/g	20.2273	21.6184	51.5852	77.8834	85.6571	94.6127	98.4665	96.0469	1301.32	927.606	101%	81.6%	effect on IAP activity compared to the LPS group (LPS [1]; 12 h after LPS challenge): significantly up-regulated; effect on IAP activity compared to the LPS group (LPS [1]; 24 h after LPS challenge): no significant changes; increase of activity compared to parent peptides (LBP14-RKRR and L7) [2]: ≥ 2 fold; remaining at 2 h, 0.5 mM [3]: 29.8%; remaining at 4 h, 0.5 mM [3]: 21.2%; remaining rate in mouse serum [3]: ~ 20%; remaining at 8 h, 0.5 mM [3]: 21.7%; peptide remained intact in mouse serum [3]: 29.8 ~ 21.7%; mouse survival, therapeutic treatment (MDR E. coli; MDR E. coli at LD100 i.p., then 7 μmol/kg R7 at 0.5 h and 8 h, recorded 7 d): ≤ 20%; therapeutic efficacy, survival, single-animal event (MDR E. coli; event at day 1): 1; therapeutic efficacy, survival, single-animal event (MDR E. coli; event at day 2): 1; therapeutic efficacy, survival, single-animal event (MDR E. coli; event at day 3): 1; therapeutic efficacy, survival, single-animal event (MDR E. coli; event at day 5): 1; serum IL-1β concentration (LPS [4]): 16.9 ~ 17.5 pg/mL; serum IL-6 concentration (LPS [4]): 92.5 ~ 99.3 pg/mL; serum IL-10 concentration (LPS [4]): 13.9 ~ 14.5 pg/mL; serum TNF-α concentration (LPS [4]): 43.1 ~ 46.1 pg/mL
CSCC[C@H](NC(=O)[C@H](CCCNC(=N)N)NC(=O)[C@H](Cc1c[nH]c2ccccc12)NC(=O)[C@H](C)NC(=O)[C@H](Cc1c[nH]c2ccccc12)NC(=O)[C@H](CCCNC(=N)N)NC(=O)[C@H](Cc1c[nH]c2ccccc12)NC(=O)[C@H](C)NC(=O)[C@H](CCCCN)NC(=O)[C@@H](N)Cc1ccccc1)C(=O)N[C@@H](CCCCN)C(=O)N[C@@H](CCCCN)C(=O)N[C@@H](CC(C)C)C(=O)N[C@@H](C)C(=O)N[C@@H](C)C(=O)N1CCC[C@H]1C(=O)N[C@@H](CO)C(=O)O [L7] (H-FKAWRWAWRMKKLAAPS-OH)	almost identical to those in mouse serum	86.9%	51.4%	32%	4.71%	646.785	420.095	646.8 U/g	17.2577	18.4019	19.7825	22.1031	24.1888	28.4883	44.9086	71.3338	684.97	544.938	74.5%	62.7%	remaining at 8 h, 0.5 mM (in vitro; Supplementary Fig. 2b source data, human serum, 8 h, RP-HPLC, mean, read-out: remaining rate in human serum): 0.839%; remaining at 2 h, 0.5 mM [3]: 25.3%; remaining at 4 h, 0.5 mM [3]: 6.01%; remaining rate in mouse serum [3]: completely undetectable; remaining at 8 h, 0.5 mM [3]: 0.829%; peptide remained intact in mouse serum [3]: 25.3 ~ 0.8%; therapeutic efficacy, survival, single-animal event (MDR E. coli; event at day 2): 1; therapeutic efficacy, survival, single-animal event (MDR E. coli; event at day 4): 1; therapeutic efficacy, survival, single-animal event (MDR E. coli; event at day 6): 1; serum IL-1β concentration (LPS [4]): 24.6 ~ 26.1 pg/mL; serum IL-6 concentration (LPS [4]): 113.2 ~ 120.2 pg/mL; serum IL-10 concentration (LPS [4]): 11.5 ~ 12.0 pg/mL; serum TNF-α concentration (LPS [4]): 56.4 ~ 68.0 pg/mL
